Assays:
human PHD2181-417 = human PHD2181-417 (Homo sapiens (Human), UniProt Q9GZT9); assay: PHD2 enzyme activity assay ([14C]-succinic acid production); type: biochemical; conditions: PHD2181-417 polypeptide, HIF-1α peptide 10 μM, [5-14C]-2-oxoglutaric acid; 30 min pre-incubation; tested 10 μM to 3 nM;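 also: reaction ran 10 min with compound in Tris pH 7.5 buffer with catalase, DTT and ascorbate, labelled succinate freed of leftover 2-oxoglutarate by DNP precipitation, then beta counted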
Hep-3B cells = assay: Cellular assay: EPO secretion in Hep-3B cells; type: cell-based, human; design: EPO secretion, % of control compound: dose or concentration left out as unconfirmed; conditions: Homo sapiens, Hep3B, 24 h, EPO secretion as percentage of control compound 7-[(4-Chloro-phenyl)-(5-methyl-isoxazol-3-ylamino)-methyl]-quinolin-8-ol, read-out: Cellular % EPO Stimulation

Sequence of human PHD2181-417 (Q9GZT9 181-417): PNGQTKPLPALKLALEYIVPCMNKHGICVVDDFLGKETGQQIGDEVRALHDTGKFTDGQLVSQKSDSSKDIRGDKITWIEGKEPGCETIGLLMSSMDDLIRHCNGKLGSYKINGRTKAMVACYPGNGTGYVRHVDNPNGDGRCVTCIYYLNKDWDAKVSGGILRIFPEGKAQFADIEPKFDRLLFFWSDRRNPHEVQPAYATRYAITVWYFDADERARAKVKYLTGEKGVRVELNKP

| Enzyme pIC50 (human PHD2181-417) | Structure (SMILES) | EPO secretion, % of control compound (Hep-3B cells) |
| --- | --- | --- |
| 6.3 | O=C(O)c1cnn(-c2nc3c(Br)cc(F)cc3[nH]2)c1 [Example 124, 1-(4-Bromo-6-fluoro-1H-benzoimidazol-2-yl)-1H-pyrazole-4-carboxylic Acid] | 2.4% |
| 6.4 | Nc1cc2nc(-n3cc(C(=O)O)cn3)[nH]c2cc1Cl [Example 41, 1-(5-Amino-6-chloro-1H-benzoimidazol-2-yl)-1H-pyrazole-4-carboxylic Acid] | 30% |
| 7.3 | O=C(O)c1cnn(-c2nc3cc(S(=O)(=O)c4ccc(Cl)cc4)c(Cl)cc3[nH]2)c1 [Example 85, 1-[6-Chloro-5-(4-chloro-benzenesulfonyl)-1H-benzoimidazol-2-yl]-1H-pyrazole-4-carboxylic Acid] | 51.6% |
| 6.2 | O=C(O)c1cnn(-c2nc3c(F)cccc3[nH]2)c1 [Example 110, 1-(4-Fluoro-1H-benzoimidazol-2-yl)-1H-pyrazole-4-carboxylic Acid] | 45.9% |
| 6.6 | O=C(O)c1ccc2[nH]c(-n3cc(C(=O)O)cn3)nc2c1 [Example 47, 2-(4-Carboxy-pyrazol-1-yl)-1H-benzoimidazole-5-carboxylic Acid] | 11% |
| 7.4 | O=C(O)c1cnn(-c2nc3cc(Oc4ccc(Cl)cc4)c(Cl)cc3[nH]2)c1 [Example 51, 1-[6-Chloro-5-(4-chloro-phenoxy)-1H-benzoimidazol-2-yl]-1H-pyrazole-4-carboxylic Acid] | 150% |
| 7.2 | O=C(O)c1cnn(-c2nc3cc(Oc4ccc(Cl)cc4F)c(Cl)cc3[nH]2)c1 [Example 146, 1-[6-Chloro-5-(4-chloro-2-fluoro-phenoxy)-1H-benzoimidazol-2-yl]-1H-pyrazole-4-carboxylic Acid] | 49.9% |
| 7.57 | O=C(O)c1cnn(-c2nc3cc(S(=O)(=O)c4ccccc4)c(Cl)cc3[nH]2)c1 [Example 83, 1-(5-Benzenesulfonyl-6-chloro-1H-benzoimidazol-2-yl)-1H-pyrazole-4-carboxylic Acid] | 96.7% |
| 6.8 | CC(C)Sc1cc2[nH]c(-n3cc(C(=O)O)cn3)nc2cc1Cl [Example 77, 1-(5-Chloro-6-isopropylsulfanyl-1H-benzoimidazol-2-yl)-1H-pyrazole-4-carboxylic Acid] | 153% |
| 6.6 | O=C(O)c1cnn(-c2nc3c(F)c(F)ccc3[nH]2)c1 [Example 111, 1-(4,5-Difluoro-1H-benzoimidazol-2-yl)-1H-pyrazole-4-carboxylic Acid] | 32.6% |
| 6.6 | O=C(O)c1cnn(-c2nc3cc(SCc4cccc(Cl)c4)c(Cl)cc3[nH]2)c1 [Example 164, 1-[6-Chloro-5-(3-chloro-benzylsulfanyl)-1H-benzoimidazol-2-yl]-1H-pyrazole-4-carboxylic Acid] | 27.4% |
| 6.1 | Cc1cc(Br)cc2nc(-n3cc(C(=O)O)cn3)[nH]c12 [Example 49, 1-(5-Bromo-7-methyl-1H-benzoimidazol-2-yl)-1H-pyrazole-4-carboxylic Acid] | 24% |
| 6.7 | O=C(O)c1cnn(-c2nc3cc(SCc4ccccc4)c(Cl)cc3[nH]2)c1 [Example 66, 1-(5-Benzylsulfanyl-6-chloro-1H-benzoimidazol-2-yl)-1H-pyrazole-4-carboxylic Acid] | 41.6% |
| 6.18 | O=C(O)c1cnn(-c2nc3cc(Sc4ccc(Cl)c(Cl)c4)c(Cl)cc3[nH]2)c1 [Example 63, 1-[6-Chloro-5-(3,4-dichloro-phenylsulfanyl)-1H-benzoimidazol-2-yl]-1H-pyrazole-4-carboxylic Acid] | 26.5% |
| 6.9 | COc1cccc(Sc2cc3nc(-n4cc(C(=O)O)cn4)[nH]c3cc2Cl)c1 [Example 64, 1-[6-Chloro-5-(3-methoxy-phenylsulfanyl)-1H-benzoimidazol-2-yl]-1H-pyrazole-4-carboxylic Acid] | 38.3% |
| 6.5 | O=C(O)c1cnn(-c2nc3c(Cl)cc(Cl)cc3[nH]2)c1 [Example 34, 1-(4,6-Dichloro-1H-benzoimidazol-2-yl)-1H-pyrazole-4-carboxylic Acid] | 56.3% |
| 6.8 | O=C(O)c1cnn(-c2nc3cc(NS(=O)(=O)C4CC4)c(Cl)cc3[nH]2)c1 [Example 135, 1-(6-Chloro-5-cyclopropanesulfonylamino-1H-benzoimidazol-2-yl)-1H-pyrazole-4-carboxylic Acid] | 17% |
| 6.8 | O=C(O)c1cnn(-c2nc3cc(F)c(N4CCCCC4)cc3[nH]2)c1 [Example 118, 1-(5-Fluoro-6-piperidin-1-yl-1H-benzoimidazol-2-yl)-1H-pyrazole-4-carboxylic Acid] | 152% |

Reference: US10851083B2, “Benzoimidazoles as prolyl hydroxylase inhibitors” (Janssen Pharmaceutica NV, priority 2008, dated 2020)
